Source: ChEMBL document CHEMBL4346685, “Naphthyl quinoxaline thymidine conjugate is a potent anticancer agent post UVA activation and elicits marked inhibition of tumor growth through vaccination” (Eur J Med Chem, 2019)
One block for each molecule: values may come before it. Calls of active or inactive are those of the source. No cut-off for these calls is given here.

Tests used:
MCF7 [1] = assay: Induction of reactive oxygen species generation in human MCF7 cells up to 200 nM preincubated for 5 hrs followed by compound washout and subsequent 3 mW/cm2 UVA irradiation measured 10 mins post irradiation by DCFH-DA probe based fluorescence microscopic analysis; type: functional, cell-based
H22 [2] = assay: Antitumor activity against mouse H22 cells allografted in immunocompetent Balb/c mouse assessed as decrease in lump formation at vaccination site at 250 nM incubated with cells for 5 hrs prior to 20 mins 2 mW/cm2 UVA irradiation post compound washout followed by vaccination and measured over 30 days; type: functional, cell-based
MCF7 [3] = assay: Antiproliferative activity against human MCF7 cells assessed as reduction in cell viability preincubated for 5 hrs followed by compound washout and subsequent 3 mW/cm2 UVA irradiation measured 48 hrs post irradiation by CCK8 assay; type: functional, cell-based; settings: MCF7, light or radiation study
H22 [4] = assay: Antitumor activity against mouse H22 cells allografted in immunocompetent Balb/c mouse assessed as inhibition of tumour formation at 60 nM incubated with cells for 5 hrs prior to 20 mins 2 mW/cm2 UVA irradiation post compound washout followed by vaccination and measured over 20 days; type: functional, cell-based
H22 [5] = assay: (§1) Antitumor activity against mouse H22 cells allografted in immunocompetent Balb/c mouse assessed as decrease in tumour formation at challenge site at 250 nM incubated with cells for 5 hrs followed by compound washout before 2 mW/cm2 UVA irradiation for 20 mins and followed by vaccination and subsequent H22 cells addition 10 days post vaccination and measured after 2 weeks; type: functional, cell-based
H22 [6] = assay: Induction of immunogenic cell death in mouse H22 cells assessed as […] in extracellular ATP level at 250 nM incubated for 5 hrs followed by compound washout and subsequent 2 mW/cm2 UVA irradiation measured 5 hrs post irradiation by chemiluminescence-based assay; type: functional
A-375 [7] = assay: Dark toxicity against human A375 cells up to 500 nM preincubated for 5 hrs followed by compound washout and measured after 48 hrs by CCK8 assay; type: cell-based; settings: a-375, 48 h
H22 [8] = assay: Dark toxicity in mouse H22 cells assessed as increase in intracellular calreticulin level at 60 to 250 nM measured after 5 hrs by flow cytometric analysis; type: cell-based; settings: h22, 5 h, 0.25 µM
H22 [9] = assay: as §1, with “months” for “weeks”; type: functional, cell-based
H22 [10] = assay: Induction of immunogenic cell death in mouse H22 cells assessed as extracellular HMGB1 level at 120 to 250 nM preincubated for 5 hrs followed by compound washout and subsequent 2 mW/cm2 UVA irradiation measured 2 hrs post irradiation by ELISA; type: functional
Bel-7402 [11] = assay: Dark toxicity against human Bel7402 cells up to 500 nM incubated for 5 hrs followed by compound washout and measured after 48 hrs by CCK8 assay; type: cell-based; settings: bel-7402, 5 h
A-375 [12] = assay: Antiproliferative activity against human A375 cells assessed as reduction in cell viability preincubated for 5 hrs followed by compound washout and subsequent 3 mW/cm2 UVA irradiation measured 48 hrs post irradiation by CCK8 assay; type: functional, cell-based; settings: A-375, light or radiation study
H22 [13] = assay: as §1, with “on day 25” for “after 2 weeks”; type: functional, cell-based
Bel-7402 [14] = assay: Antiproliferative activity against human Bel7402 cells assessed as reduction in cell viability preincubated for 5 hrs followed by compound washout and subsequent 3 mW/cm2 UVA irradiation for 20 mins measured 48 hrs post irradiation by CCK8 assay; type: functional, cell-based; settings: Bel-7402, light or radiation study
MCF7 [15] = assay: Dark toxicity against human MCF7 cells up to 500 nM preincubated for 5 hrs followed by compound washout and measured after 48 hrs by CCK8 assay; type: cell-based; settings: mcf7, 48 h
H22 [16] = assay: Dark toxicity against mouse H22 cells up to 500 nM preincubated for 5 hrs followed by compound washout and measured after 48 hrs by CCK8 assay; type: cell-based; settings: h22, 48 h
H22 [17] = assay: (§2) Induction of immunogenic cell death in mouse H22 cells assessed as increase in intracellular calreticulin level at 60 to 250 nM preincubated for 5 hrs followed by compound washout and subsequent 2 mW/cm2 UVA irradiation for 20 mins measured 2 hrs post irradiation by flow cytometric analysis; type: functional, cell-based
[18] = Toxicity in immunocompetent BALB/c mouse allografted with mouse H22 cells assessed as change in body weight at 250 nM incubated with cells for 5 hrs followed by compound washout before 2 mW/cm2 UVA irradiation for 20 mins and followed by vaccination and subsequent H22 cells addition 10 days post vaccination and measured over 30 days; settings: 0.25 µM
H22 [19] = assay: Antitumor activity against mouse H22 cells allografted in immunocompetent Balb/c mouse assessed as inhibition of tumour formation at 60 nM incubated with cells for 5 hrs prior to 20 mins 2 mW/cm2 UVA irradiation post compound washout followed by vaccination and measured over 10 days; type: functional, cell-based
H22 [20] = assay: Antitumor activity against mouse H22 cells allografted in immunocompetent Balb/c mouse assessed as inhibition of tumour formation at 250 nM incubated with cells for 5 hrs prior to 20 mins 2 mW/cm2 UVA irradiation post compound washout followed by vaccination and measured within 5 days; type: functional, cell-based
H22 [21] = assay: Induction of immunogenic cell death in mouse H22 cells assessed as extracellular ATP level at 250 nM preincubated for 5 hrs followed by compound washout and subsequent 2 mW/cm2 UVA irradiation for 20 mins measured 2 hrs post irradiation by chemiluminescence-based assay; type: functional
H22 [22] = assay: Dark toxicity in mouse H22 cells assessed as increase in extracellular HMGB1 level at 120 to 250 nM incubated for 5 hrs by ELISA; type: cell-based; settings: h22, 5 h, 0.25 µM
H22 [23] = assay: Antiproliferative activity against mouse H22 cells assessed as reduction in cell viability preincubated for 5 hrs followed by compound washout and subsequent 2 mW/cm2 UVA irradiation measured 48 hrs post irradiation by CCK8 assay; type: functional, cell-based; settings: H22, light or radiation study
H22 [24] = assay: as §2, with “irradiation” for “irradiation for 20 mins”, “Hoechst staining based fluorescence microscopic” for “flow cytometric”; type: functional
H22 [25] = assay: Antitumor activity against mouse H22 cells allografted in immunocompetent Balb/c mouse assessed as inhibition of tumour formation at 2 uM incubated with cells for 5 hrs prior to 20 mins 2 mW/cm2 UVA irradiation post compound washout followed by vaccination and measured within 5 days; type: functional, cell-based
A-375 [26] = assay: Cytotoxicity against human A375 cells assessed as reduction in cell viability preincubated for 5 hrs followed by compound washout and measured after 48 hrs by CCK8 assay; type: functional, cell-based
H22 [27] = assay: Antitumor activity against mouse H22 cells allografted in immunocompetent Balb/c mouse assessed as decrease in lump formation in vaccination site at 2 uM incubated with cells for 5 hrs prior to 20 mins 2 mW/cm2 UVA irradiation post compound washout followed by vaccination and measured over 30 days; type: functional, cell-based
Bel-7402 [28] = assay: Cytotoxicity against human Bel7402 cells assessed as reduction in cell viability preincubated for 5 hrs followed by compound washout and measured after 48 hrs by CCK8 assay; type: functional, cell-based
MCF7 [29] = assay: Cytotoxicity against human MCF7 cells assessed as reduction in cell viability preincubated for 5 hrs followed by compound washout and measured after 48 hrs by CCK8 assay; type: functional, cell-based
H22 [30] = assay: Induction of immunogenic cell death in mouse H22 cells assessed as increase in extracellular HMGB1 level at 2 uM incubated for 5 hrs by ELISA; type: functional, cell-based
H22 [31] = assay: Induction of immunogenic cell death in mouse H22 cells assessed as increase in intracellular calreticulin level at 2 uM measured after 5 hrs by flow cytometric analysis; type: functional, cell-based
H22 [32] = assay: Induction of immunogenic cell death in mouse H22 cells assessed as increase in extracellular ATP level at 2 uM measured after 5 hrs by chemiluminescence-based assay; type: functional
H22 [33] = assay: Antitumor activity against mouse H22 cells allografted in immunocompetent Balb/c mouse assessed as decrease in lump formation at challenge site at 2 uM incubated with cells for 5 hrs followed by compound washout prior to vaccination and subsequent H22 cells addition 10 days post vaccination and measured over 30 days; type: functional, cell-based
H22 [34] = assay: Induction of immunogenic cell death in mouse H22 cells assessed as extracellular ATP level at 2 uM measured after 24 hrs by chemiluminescence-based assay; type: functional
H22 [35] = assay: Induction of immunogenic cell death in mouse H22 cells assessed as increase in calreticulin level in cell surface at 2 uM incubated for 5 hrs by Hoechst staining based fluorescence microscopic analysis; type: functional
[36] = Dark toxicity against mouse H22 cells assessed as reduction in cell viability preincubated for 5 hrs followed by compound washout and measured after 48 hrs by CCK8 assay; type: cell-based

IC50 (MCF7 [3]): 0.0496 µM
IC50 (A-375 [12]): 0.044 µM
IC50 (Bel-7402 [14]): 0.0443 µM
SMILES: Cc1cn([C@H]2C[C@H](n3cc(CNC(=O)CCCCCOc4ccc5c(c4)-c4nc6cc7ccccc7cc6nc4[C@@H]4C(C)(C)CCC[C@]54C)nn3)[C@@H](CO)O2)c(=O)[nH]c1=O
Activity (A-375 [7]): Non-Toxic
Activity (Bel-7402 [11]): Non-Toxic
Activity (MCF7 [15]): Non-Toxic
Activity (H22 [16]): Non-Toxic
IC50 (H22 [23]): 0.032 µM

IC50 (Bel-7402 [14]): 0.251 µM
SMILES: Cc1cn([C@H]2C[C@H](n3cc(CNC(=O)CCCCCOc4ccc5c(c4)-c4nc6ccccc6nc4[C@@H]4C(C)(C)CCC[C@]54C)nn3)[C@@H](CO)O2)c(=O)[nH]c1=O

Continued, molecule first:

SMILES: Cc1cn([C@H]2C[C@H](n3cc(CNC(=O)CCCCCOc4ccc5c(c4)-c4nc6cc7ccccc7cc6nc4[C@H]4C(C)(C)CCC[C@]54C)nn3)[C@@H](CO)O2)c(=O)[nH]c1=O
Activity (MCF7 [1]): Active
Activity (H22 [2]): Active
IC50 (MCF7 [3]): 0.0235 µM
inhibition (H22 [4]): inactive
inhibition (H22 [5]): Active
Activity (H22 [6]): Active
Activity (A-375 [7]): Non-Toxic
Activity (H22 [8]): Non-Toxic
inhibition (H22 [9]): Active
Activity (H22 [10]): 3 ng/mL
Activity (Bel-7402 [11]): Non-Toxic
IC50 (A-375 [12]): 0.0253 µM
inhibition (H22 [13]): Active
IC50 (Bel-7402 [14]): 0.0266 µM
Activity (MCF7 [15]): Non-Toxic
Activity (H22 [16]): Non-Toxic
Activity (H22 [17]): Active
Activity [18]: Non-Toxic
inhibition (H22 [19]): inactive
inhibition (H22 [20]): Active
Activity (H22 [21]): 335 nM
Activity (H22 [22]): Non-Toxic
IC50 (H22 [23]): 0.0288 µM
Activity (H22 [24]): Active

SMILES: O=C1c2c(O)ccc(O)c2C(=O)c2c(NCCNCCO)ccc(NCCNCCO)c21 [MITOXANTRONE]
inhibition (H22 [25]): Active
IC50 (A-375 [26]): 0.112 µM
Activity (H22 [27]): Active
IC50 (Bel-7402 [28]): 0.117 µM
IC90 (Bel-7402 [28]): 1.3 µM
IC50 (MCF7 [29]): 0.38 µM
Activity (H22 [30]): inactive
Activity (H22 [31]): Active
Activity (H22 [32]): inactive
inhibition (H22 [33]): inactive
Activity (H22 [34]): 9 nM
Activity (H22 [35]): Active
IC50 at 5 h [36]: 0.187 µM

SMILES: C=CC1=C(C)c2cc3[nH]c(cc4nc(cc5[nH]c(cc1n2)c(C)c5CCC(=O)O)C(CCC(=O)O)=C4C)c(C)c3C=C [PROTOPORPHYRIN]
IC50 (Bel-7402 [14]): 0.31 µM
